Data from patent US20200369674A1, “ANTI-PAIN COMPOUND AND PREPARATION METHOD THEREOF” (LUNAN PHARMACEUTICAL GROUP CORPORATION, priority 2017, published 2020).

Assays:
[1] = test system: ICR mice; experiment: Xylene-induced ear swelling test in mice (Effect Example 6); assay type: in vivo; settings: 2 mg/kg i.g., 30 μL xylene one hour after administration
Method: (§1) ICR mice, body weight 18 g-22 g, half of them being male and the other half being female, provided by the Department of Laboratory Animals, Peking University. The animals were raised in a standard environment: temperature 23±1° C., relative humidity 55±5%, light-dark cycle 12 h/12 h, and fed with standard pellet feed.
Mice were randomly divided into 5 groups, 8 mice per group, half of them being male and the other half being female. Vehicle control group (double-distilled water, i.g.), dexamethasone control group (2 mg/kg, i.g.), compound DXL-A-22 group (1 mg/kg, i.g.), and compound DXL-A-24 group (1 mg/kg, i.g.) were set. All drugs were dissolved in double-distilled water before administration, and given by intragastric administration at 0.1 mL/10 g. One hour after administration, 30 μL of xylene was evenly smeared on the inner and outer sides of right ear of mouse to cause inflammation. After 0.5 hour, the left and right ears of mouse were cut, and circular ear pieces of the same size were punched at the same position on the left and right ears using the punch (diameter 6 mm) respectively, and weighed for the weights of the left and right ear pieces. The difference between the weight of the right ear after applying xylene and the weight of the left ear without applying xylene was used as swelling degree index (i.e., swelling degree). The swelling degree was calculated according to formula (1). The intensity of anti-inflammatory effect was expressed as inhibition rate (%), and the inhibition rate (%) was calculated according to formula (2).
Swelling degree=weight of right ear piece−weight of left ear piece (1)
Inflammation inhibition rate (%)=(ear swelling degree in vehicle control group−ear swelling degree in drug group)/ear swelling degree in vehicle control group×100% (2)

[2] = test system: ICR mice; experiment: Carrageenan-induced paw swelling in mice; assay type: in vivo; settings: 0.5 mg/kg i.g.
Method: as §1
The mouse was fixed in a special holder, and both hind feet were exposed. Before the test, a line was drawn at 0.5 cm below the ankle joint of mouse with a marker, and used as a mark for measuring plantar volume. 30 minutes before administration the volume of right hind foot was measured as basic threshold. The mice were randomly divided into 5 groups, 8 mice per group, half of them being male and the other half being female. Vehicle control group (double-distilled water, i.g.), dexamethasone control group (0.5 mg/kg, i.g.), compound DXL-A-22 group (1 mg/kg, i.g.), and DXL-A-24 group (1 mg/kg, i.g.) were set. All drugs were dissolved in double-distilled water before administration, and were administered at 0.1 mL/10 g. Immediately after intragastric administration, 20 μL of 5% carrageenan saline solution was injected subcutaneously in the right hind foot of the mice, and the plantar volumes were measured at time points of 0.5 h, 1 h and 2 h after injection. The difference between the plantar volume of right foot after injection of carrageenan and the plantar volume of right foot before injection was used as swelling degree index (i.e., swelling degree). The swelling degree was calculated according to formula (3). The intensity of anti-inflammatory effect was expressed as inhibition rate (%), and the inhibition rate (%) was calculated according to formula (4).
Swelling degree=plantar volume of right foot after injection−plantar volume of right foot before injection (3)
Inflammation inhibition rate (%)=(plantar swelling degree in vehicle control group−plantar swelling degree in drug administration group)/plantar swelling degree in vehicle control group×100% (4)

## C[C@@H]1C[C@H]2[C@@H]3CCC4=CC(=O)C=C[C@]4(C)[C@@]3(F)[C@@H](O)C[C@]2(C)[C@@]1(O)C(=O)CO [Dexamethasone, reference compound]
[1]
  Inhibition rate (%): 69.28%
[1]; mean±SD
  Swelling degree: 2.93 ± 0.32 mg
[2]; 0.5 h after carrageenan injection
  0.5 h inhibition rate (%): 69.55%
[2]; 0.5 h after carrageenan injection, mean±SD
  0.5 h swelling degree (μL): 26.00 ± 14.21**/ μL
[2]; 1 h after carrageenan injection
  1 h inhibition rate (%): 77.06%
[2]; 1 h after carrageenan injection, mean±SD
  1 h swelling degree (μL): 19.88 ± 10.09**/ μL
[2]; 2 h after carrageenan injection
  2 h inhibition rate (%): 84.64%
[2]; 2 h after carrageenan injection, mean±SD
  2 h swelling degree (μL): 17.13 ± 11.54**/ μL
